Results as given in patent publication US8956589B2, “Imaging diagnostic agent and extracorporeal diagnostic agent for incurable neurological diseases” (Shiga University of Medical Science, priority 2009, dated 2015).

Tests used:
senile plaque = assay: 19F-MR image measurement in amyloid precursor protein transgenic mouse (Tg2576); type: in vivo; settings: tail vein, 8 mg/ml 250 μl, measured for 3 hours after 3 hours post administration
Procedure: A quantity of 4.5 mg of compound (I) was measured, and 0.112 ml of Cremophol EL was added to the measured compound. The compound was dissolved by use of a glass stick while the mixture being heated. Then, 0.45 ml of saline was added to the mixture to prepare an administration solution (8 mg/ml).
This administration solution 250 μl was administered, in one shot (about 90 seconds), to the tail vein of an amyloid precursor protein transgenic mouse (Tg2576, created according to the method disclosed in Science, 274,99 (1996)) under anesthesia by pentobarbital sodium.
After the administration was ended, with the mouse under anesthesia, the head of the mouse was continuously measured in units of 1 hour by use of an MRI device. Then, pieces of data were added to create images. ^19F-MRI brain images were obtained by chemical shift imaging method (CSI method). The MRI device that was used was 7T Unity Inova MR Scanner (by Varian).

senile plaques = assay: Brain tissue staining after in vivo administration; design: species or system mouse
Procedure: The brain of the mouse scanned by ^19F-MRI in test example 2 was taken out and fixed for 2 days in a 4%-formalin solution, and then placed in a 15%-sucrose solution for cryoprotection. Then, a 20 μm-thick slice was created by a cryostat. Next, the slice was caused to react with a rabbit antihuman amyloid β polyclonal antibody (IBL, 0.2 μg/ml) at 4° C. overnight. Further, the sample was washed with PBS-T for 10 minutes 3 times, and then caused to react with Alexa 647 anti-rabbit IgG antibody (Molecular Probes, 500-fold dilution) for 4 hours at room temperature. This sample was washed with PBS-T for 10 minutes 3 times, and then counterstained with cresyl violet for 1 minute. Then, the sample was further washed with distilled water, and then enclosed with glycerol, and this sample was used for observation. The binding capacity of the compound to a senile plaque was observed by an inverted fluorescence microscope. It should be noted that a compound image was measured by use of the FITC filter and an amyloid β protein image was measured by means of the Cy5 filter. The same treatment was performed onto a normal mouse.

[1] = molecular target: amyloid β peptide aggregates (1-40) (Homo sapiens (Human), UniProt P05067); type: binding; settings: aggregates 1 μM, thioflavin-T 3 μM, compound 0.02 to 20 μM, 30 minutes at 23° C., pH 7.4; read-out: Amyloid binding property (IC50)
Procedure: The binding capacity of the compounds to an amyloid β peptide aggregate was quantitatively measured by a thioflavin-T fluorescence inhibition test. […] The resultant solution was cause to react for 30 minutes at 23° C. with the light shielded. Then, the fluorescence of thioflavin-T was measured under a condition of Ex=440 nm, Em=490 nm, Cutoff filter=475 nm. The IC50 values were calculated by using an analysis software, GraphPad PRISM Ver.5 (GraphPad Software, Inc.).

[2] = molecular target: T1, amyloid β peptide aggregates (Homo sapiens (Human), UniProt P05067); assay: Model experiment of in-vitro diagnostic agent (colour change of solution)
Procedure: Amyloid β peptide aggregates were prepared by the method described in test example 6, and caused to precipitate in the solution by prolonging the reaction time. After the aggregates were prepared in this manner, the precipitation containing the amyloid β peptide aggregates and a supernatant not containing the amyloid β peptide aggregates were separated. The precipitation containing the amyloid aggregates was suspended at a concentration of 100 μM, in a buffer. Then, each of compounds 23 and 1 was dissolved at a concentration of 20 μg/ml in a 50 mM phosphate buffer (pH 7.5) containing 100 mM NaCl. For each compound, four kinds of liquid mixtures were prepared, that is, a liquid mixture obtained by adding 100 μl of a buffer into 100 μl of the compound containing solution (A of FIG. 13); a liquid mixture obtained by adding 100 μl of a buffer in which amyloid β peptides before agglutination reaction were dissolved, to 100 μl of the compound containing solution (B of FIG. 13); a liquid mixture obtained by adding 100 μl of a buffer in which amyloid β peptide aggregates were suspended, to 100 μl of the compound containing solution (C of FIG. 13); and a liquid mixture obtained by adding 100 μl of a buffer in which amyloid β peptide aggregates were suspended, to 100 μl of a buffer not containing a compound (D of FIG. 13). Then, the four kinds of liquid mixtures were left to stand at room temperature. […] Only the sample in which compound 1 and amyloid β peptide aggregates were mixed began to be stained in red after 5 minutes, and the color became gradually stronger and changed into strong red after about 30 minutes. […] When the absorption spectrum of the sample that had turned into red was measured, the peak had shifted towards a longer wavelength. […] As a result, it is considered that the keto/enol equilibrium in the solution was lost, and structural changes happened, that is, the keto bodies newly turned into enol bodies in the solution.

[3] = molecular target: T1, amyloid β peptide aggregates; assay: Binding to and release from precipitated amyloid β peptide aggregates (absorbance of supernatant)
Procedure: Each of compound 23, compound 1, and compound 24 is dissolved at a concentration of 2 μg/mL, in a phosphate buffer, and then amyloid β peptide aggregates are added to each solution, and the resultant solution is caused to react for 1 hour. Then, the solution is centrifuged for 10 minutes at 6,000 rpm, to separate the amyloid β peptide aggregates. A supernatant was removed, and an absorbance measurement was performed to measure the quantity of the compound that had not bound to the amyloid peptide aggregates and that were contained in the supernatant. The obtained quantity was subtracted from the original quantity of the compound, whereby the quantity of the compound that had bound to the amyloid β peptide aggregates was calculated.
Next, the precipitated amyloid β peptide aggregates were washed, a buffer was added thereto, and the quantity of the compound that got released was measured. Then, the rate of the compound that had bound to amyloid β peptide aggregates and then was eluted into the buffer was calculated using the original quantity of the compound as 100%.

[4] = molecular target: T1, amyloid β peptide aggregates; assay: Quantity determination of amyloid β aggregates by flow cytometry with anti-Aβ antibody microspheres; settings: FACS, 5 to 60 minutes at 4° C., background of nonspecific IgG1 microspheres subtracted
Procedure: The washing operation was performed as follows: 0.75 mL of PBS-T was added, the resultant mixture was centrifuged at 10,000×G for 5 minutes, and then the supernatant was removed. […] During the reaction, the mixture was agitated every 5 to 15 minutes. After the reaction, the microspheres were washed 3 times by the same method above, then suspended in PBS-T 0.25 mL, and kept at 4° C. until they were used. Negative control microspheres were prepared by use of a nonspecific mouse IgG1 antibody (by SIGMA, No. M 9269, mouse myeloma-derived IgG1, 1 mg/mL) by the same method. […] By subtracting as a background the analysis value of the negative control microspheres to which the nonspecific mouse IgG1 antibody was bound, the number of counts of anti Aβ antibody-specific fluorescence positive microsphere particles was determined.

[5] = compound 20 μg/ml solution mixed with amyloid β peptide aggregates, room temperature

T1 sequence (P05067 672-711): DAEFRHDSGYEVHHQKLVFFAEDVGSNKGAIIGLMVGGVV
amyloid β peptide aggregates (1-40), sequence (P05067 672-711): as above

COC(=O)CCC(C(=O)/C=C/c1ccc(O)c(OC(F)(F)F)c1)C(=O)/C=C/c1ccc(O)c(OC(F)(F)F)c1 [Compound 1, 1,7-bis(4′-hydroxy-3′-trifluoromethoxyphenyl)-4-methoxycarbonylethyl-1,6-heptadiene-3,5-dione]
19F-MRI signal in brain (senile plaque): signals that are assumed to be corresponding to a senile plaque were detected in the brain | transmissiveness through the blood-brain barrier (senile plaques; Tg2576 mouse after i.v. administration): confirmed | binding to senile plaques in vivo (senile plaques; brain slices of Tg2576 mouse after i.v. administration, fluorescence vs amyloid β antibody stain): sufficient binding | IC50 [1]: 440 nM | time at which colour changed into strong red [2, 5]: about 30 minutes | time at which sample began to be stained in red [2, 5]: 5 min | colour of sample with amyloid β peptides before agglutination reaction ([2]; compound 20 μg/ml solution mixed with non-aggregated amyloid β peptides): did not change | binding rate to amyloid β peptide aggregates ([3]; compound 2 μg/mL in phosphate buffer, 1 hour reaction): 57% | rate of compound released (eluted into buffer) from amyloid β peptide aggregates ([3]; washed precipitated aggregates, buffer added, original quantity as 100%): highest value | counts of fluorescence positive microsphere particles depending on aggregate concentration [4]: quantitativeness was confirmed
